System: adult mongrel dogs
Assay: Phenylephrine-induced hypertension in four anesthetized dogs (Example 8)
Assay type: in vivo, dog
Conditions: after administ. of phenylephrine 10 min.; 10 µg/kg/min, before CGRP
Procedure: Example 6 was repeated by substantially almost same manner using four adult mongrel dogs, mean body weight 12.3±3.0 kg, applying same anesthetic condition. After setting up the experiment at more than 60 minutes passing and confirming to stabilize the depth of anesthesia and blood flow, phenylephrine (hypertensor) 10 µg/kg/min was administered.
Further after 10 minutes passed, the active ingredient, desalanyl-deamino-c-CGRP 10 µg/kg/hr was administered and at 10 min. and 20 min. after administration of the active ingredient, heart rate (HR) and mean a artery pressure (MAP) were measured.

## CNC[C@H](O)c1cccc(O)c1 [phenylephrine]
  HR: Heart rate: 138.0±9.3 beat/min
  MAP: Mean artery pressure: 159.0±6.2 mmHg

— EP0672419A1, “BLOOD PRESSURE REGULATOR” (Asahi Kasei Kogyo Kabushiki Kaisha, priority 1991, dated 1995)
